Values joined by “and” are separate entries in the source; they are usually repeats but may differ in a detail not shown here. Equal values may be shown once.
Key:
[1] = test system: HeLa Tet-On cells transfected with vector alone; test: proliferation and cell cycle of vector-transfected HeLa Tet-On cells with doxycycline; format: cell-based, human
Source text: Using customized double stranded adapters, full length human haspin cDNA (amino acids 1-798, Higgins, Gene 267:55-69 (2001)) was ligated into the Hind III-Xba I sites of the expression vector pcDNA3 (Invitrogen) and, to generate myc-tagged haspin, cDNA encoding residues 2-798 was inserted into the pcDNA3-derived plasmid pCANmyc1. To generate a plasmid encoding EGFP-haspin, haspin cDNA encoding amino acids 2-798 is inserted into the Sac II-BamH I sites of pEGFP-C1 (Clontech). To generate inducible vectors, cDNA encoding myc-haspin from pCANmyc-haspin (Hind III-EcoR V) is blunt-ended and inserted into the Pvu II site of pTRE2/pur (BD Clontech) and Nhe I-Xba I fragments encoding EGFP-haspin or EGFP alone from pEGFP-haspin or pEGFP-C1, respectively are ligated into the Nhe I site of pTRE2pur. All constructs are verified by DNA sequencing. Transient transfection is carried out using Lipofectamine 2000 (Invitrogen). Stable transfection of HeLa Tet-On (BD Clontech) cells is carried out using Lipofectin with Plus Reagent (Invitrogen). After 24 h, cells are transferred to 96-well plates and incubated in medium containing 1 μg/ml puromycin and 100 μg/ml G418. Clones expressing myc-haspin or EGFP-haspin in the presence, but not absence, of 1 μg/ml doxycycline are selected by anti-myc immunoblotting or flow cytometric analysis of EGFP fluorescence respectively. […]

6His-haspin kinase = target: T1, 6His-haspin kinase (Homo sapiens, UniProt Q8TF76); test: ELISA-based microtiter plate haspin kinase assay; format: biochemical; conditions: 100 μM ATP, 10 mM MnCl2, 20 min 37° C.
T1 construct: insertion of a PCR product encoding residues 471-798 of human haspin into the PshA I site of the vector pET45b(+); 6His (N); made in house; host or cells: E. coli BL21
T1 sequence (Q8TF76 471-798): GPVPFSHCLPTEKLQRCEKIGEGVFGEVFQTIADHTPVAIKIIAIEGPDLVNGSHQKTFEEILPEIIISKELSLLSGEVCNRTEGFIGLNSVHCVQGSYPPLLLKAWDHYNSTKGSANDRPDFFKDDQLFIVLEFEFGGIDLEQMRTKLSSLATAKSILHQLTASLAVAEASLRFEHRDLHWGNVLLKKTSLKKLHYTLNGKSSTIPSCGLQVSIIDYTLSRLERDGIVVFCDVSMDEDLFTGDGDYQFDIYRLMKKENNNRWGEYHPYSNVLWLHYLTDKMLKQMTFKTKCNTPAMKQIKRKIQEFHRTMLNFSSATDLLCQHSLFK
Method: In these assays, H3-GST substrate protein (or H3-T3A-GST non-phosphorylable control) was immobilized on 96-well microtiter plates by incubation in PBS overnight at 4° C. Following washing and blocking with 1% BSA/TBS, 6His-haspin kinase was added to the wells in 50 μl total volume of Hepes-buffered saline (HBS)/100 μM ATP/10 mM MnCl2 and allowed to phosphorylate the immobilized substrate for 20 min at 37° C. After washing thrice with TBS/0.1% Tween-20, affinity-purified polyclonal anti-phospho-histone H3 (Thr-3) antibodies were added for 1 h at room temperature. After washing, antibody binding (i.e. phosphorylation) was detected using 1/2000 dilution of donkey anti-rabbit IgG-Horse Radish […] (HRP) conjugate (Jackson) followed by tetramethylbenzidine (TMB) color development (BD Biosciences). Measurement of A450 nm-A570 nm (to correct for well-to-well variation in background absorbance) was carried out after addition of H2SO4.

Compound	cell number relative to uninduced control ([1]; after 8 days, two experiments, vector alone)	cell cycle progression ([1]; vector-transfected cells)	haspin kinase activity (phosphorylation of immobilized H3-GST) (6His-haspin kinase)
C[C@H]1c2cccc(O)c2C(=O)C2=C(O)[C@]3(O)C(=O)C(C(N)=O)=C(O)[C@@H](N(C)C)[C@@H]3[C@@H](O)[C@@H]21 [Doxycycline, doxycycline]	104% and 115%	no effect	–
O=C(O)CN(CCN(CC(=O)O)CC(=O)O)CC(=O)O [EDTA]	–	–	inhibition
ARTKQTAR [H3(1-8)]	–	–	inhibition

Source: patent US7655431B2, “Compositions and methods based upon the kinase haspin” (The Brigham and Women's Hospital, Inc., priority 2004, dated 2010)
